From publication PMC6433957, “Phenylpyrrole fungicides act on triosephosphate isomerase to induce methylglyoxal stress and alter hybrid histidine kinase activity” (Scientific Reports, 2019)

Biological target: T1, triosephosphate isomerase (TPI) (Saccharomyces cerevisiae, UniProt P00942)
T1 construct: gene TPI1; commercial Triosephosphate isomerase (from S. cerevisiae, Sigma)
T1 sequence (P00942 2-248): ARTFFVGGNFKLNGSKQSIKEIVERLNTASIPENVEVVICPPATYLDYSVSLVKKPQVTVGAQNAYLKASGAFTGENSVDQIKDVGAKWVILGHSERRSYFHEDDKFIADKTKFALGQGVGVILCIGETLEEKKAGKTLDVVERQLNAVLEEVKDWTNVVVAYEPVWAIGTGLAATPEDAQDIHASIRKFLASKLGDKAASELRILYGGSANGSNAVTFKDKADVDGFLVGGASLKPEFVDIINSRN
Assay: coupled alpha-glycerophosphate dehydrogenase/NADH assay (A340) with purified TPI; also in vitro methylglyoxal release by TPI (diaminobenzene adduct)
Type: biochemical

N#Cc1c[nH]cc1-c1cccc2c1OC(F)(F)O2 [fludioxonil]
IC50: ~403 µM
